The values below come from patent publication US20230406831A1, “COMPOUNDS AND METHODS OF INHIBITING BACTERIAL CHAPERONIN SYSTEMS” (THE TRUSTEES OF INDIANA UNIVERSITY, priority 2020, published 2023).

The first assay concerns S. aureus. Nature of the assay: S. aureus bacterial proliferation assay. It counts as cell-based. The following applies: Staphylococcus aureus; Table 3; cation adjusted BHI media, OD600 at 6-8 h; read-out: S. aureus Proliferation EC50. How it is done: Evaluation of compounds for inhibition of bacterial cell proliferation.
Growth Media: S. aureus bacteria were grown in Brain Heart Infusion (BHI) broth/agar (Becton, Dickinson and Company). All liquid cultures were grown in BHI media supplemented with 25 mg/L Ca^2+ and 12.5 mg/L Mg^2+ to mimic free physiological concentrations of these cations. A 10 mg/mL Ca^2+ stock solution was prepared by dissolving 3.68 g of CaCl2·2H^2O in 100 mL of deionized water, and a 10 mg/mL Mg^2+ stock solution was prepared by dissolving 8.36 g of […] in 100 mL deionized water. Both stock solutions were filter-sterilized using 0.2 μm pore size cellulose-acetate filters. 2.5 mL of the sterile 10 mg/mL Ca^2+ stock and 1.25 mL of the sterile 10 mg/mL Mg^2+ stock solutions were added per 1 L of autoclaved BHI medium to obtain 25 mg/L Ca^2+ and 12.5 mg/L Mg^2+ ions, respectively.
General Assay Protocol: Stock bacterial cultures were streaked onto BHI agar plates and grown overnight at 37° C. Fresh aliquots of broth were inoculated with single bacterial colonies and the cultures were grown overnight at 37° C. with shaking (240 rpm) in cation adjusted BHI media. The following morning, the overnight cultures were sub-cultured (1:5 dilution) into fresh aliquots of cation adjusted BHI media and grown at 37° C. for 1-2 hours with shaking. After 2 h, cultures were diluted into fresh media to achieve final OD600 readings of 0.017. Aliquots of these diluted cultures (30 μL) were added to clear, flat-bottom, 384-well polystyrene plates that were stamped with 0.5 μL of test compounds in 20 μL media. Compounds were evaluated in dose-response format where the inhibitor concentration range during the proliferation assay was 100 μM to 46 nM (3-fold dilution series). Plates were sealed with “Breathe Easy” oxygen permeable membranes (Diversified Biotech) and left to incubate at 37° C. without shaking (stagnant assay). OD600 nm readings were taken generally at 6-8 h, when bacteria had reached log-phase growth. A second set of baseline control plates were prepared analogously, but without any bacteria added, to correct for possible compound absorbance and/or precipitation. Plates were then read at 600 nm using a Molecular Devices SpectraMax Plus384 microplate reader. EC50 values for the test compounds were obtained by plotting the OD600 results in GraphPad Prism and analyzing by non-linear regression using the log(inhibitor) vs. response (variable slope) equation. For results, see Tables 1, 2, and 3.
For `COc1ccc(Cl)cc1C(=O)Nc1ccc(C(C#N)c2ccccc2)cc1` (stereo not drawn) [Compound 84, 5-chloro-N-(4-(cyano(phenyl)methyl)phenyl)-2-methoxybenzamide], the EC50 is above 100 µM.
Same read-out and setting: with `N#CC(c1ccccc1)c1ccc(NC(=O)c2cc(Cl)ccc2O)cc1` (stereo not drawn) [Compound 85, 5-chloro-N-(4-(cyano(phenyl)methyl)phenyl)-2-hydroxybenzamide] the figure was 1.1 µM; with `COc1ccc(Cl)cc1C(=O)Nc1ccc(Oc2ccc(Cl)cc2)c(Cl)c1` [Compound 86, 5-chloro-N-(3-chloro-4-(4-chlorophenoxy)phenyl)-2-methoxybenzamide], above 100 µM; with `O=C(Nc1ccc(Oc2ccc(Cl)cc2)c(Cl)c1)c1cc(Cl)ccc1O` [Compound 87, 5-chloro-N-(3-chloro-4-(4-chlorophenoxy)phenyl)-2-hydroxybenzamide], 0.17 µM.
Same read-out and setting: for `COc1ccc(Cl)cc1C(=O)Nc1ccc(Oc2ccc(Cl)cc2)cc1` [Compound 88, 5-chloro-N-(4-(4-chlorophenoxy)phenyl)-2-methoxybenzamide] the value was above 100 µM; for `O=C(Nc1ccc(Oc2ccc(Cl)cc2)cc1)c1cc(Cl)ccc1O` [Compound 89, 5-chloro-N-(4-(4-chlorophenoxy)phenyl)-2-hydroxybenzamide], 0.36 µM; for `COc1ccc(Cl)cc1C(=O)Nc1ccc(Oc2ccccc2)c(Cl)c1` [Compound 90, 5-chloro-N-(3-chloro-4-phenoxyphenyl)-2-methoxybenzamide], above 100 µM.
Same read-out and setting: with `O=C(Nc1ccc(Oc2ccccc2)c(Cl)c1)c1cc(Cl)ccc1O` [Compound 91, 5-chloro-N-(3-chloro-4-phenoxyphenyl)-2-hydroxybenzamide] the figure was 0.21 µM; with `COc1ccc(Cl)cc1C(=O)Nc1ccc(Oc2ccccc2)cc1` [Compound 92, 5-chloro-2-methoxy-N-(4-phenoxyphenyl)benzamide], above 100 µM.
For the compound `O=C(Nc1ccc(Oc2ccccc2)cc1)c1cc(Cl)ccc1O` [Compound 93, 5-chloro-2-hydroxy-N-(4-phenoxyphenyl)benzamide], the EC50 was 0.36 µM.
Same read-out and setting: with `COc1ccc(Cl)cc1C(=O)Nc1ccc(Sc2nc3ccccc3s2)c(Cl)c1` [Compound 94, N-(4-(benzo[d]thiazol-2-ylthio)-3-chlorophenyl)-5-chloro-2-methoxybenzamide] the figure was above 100 µM.
Same read-out and setting: with `O=C(Nc1ccc(Sc2nc3ccccc3s2)c(Cl)c1)c1cc(Cl)ccc1O` [Compound 95, N-(4-(benzo[d]thiazol-2-ylthio)-3-chlorophenyl)-5-chloro-2-hydroxybenzamide] the figure was 0.14 µM.
As to `COc1ccc(Cl)cc1C(=O)Nc1ccc(Sc2nc3ccccc3s2)cc1` [Compound 96, N-(4-(benzo[d]thiazol-2-ylthio)phenyl)-5-chloro-2-methoxybenzamide], the EC50 was above 100 µM.
Same read-out and setting: with `O=C(Nc1ccc(Sc2nc3ccccc3s2)cc1)c1cc(Cl)ccc1O` [Compound 97, N-(4-(benzo[d]thiazol-2-ylthio)phenyl)-5-chloro-2-hydroxybenzamide] the figure was 0.1 µM.
Same read-out and setting: for `COc1ccc(Cl)cc1C(=O)Nc1ccc(Cc2ccccc2)cc1` [Compound 98, N-(4-benzylphenyl)-5-chloro-2-methoxybenzamide] the value was above 100 µM; for `O=C(Nc1ccc(Cc2ccccc2)cc1)c1cc(Cl)ccc1O` [Compound 99, N-(4-benzylphenyl)-5-chloro-2-hydroxybenzamide], above 100 µM; for `COc1ccc(Cl)cc1C(=O)Nc1ccc(CCc2ccccc2)cc1` [Compound 100, 5-chloro-2-methoxy-N-(4-phenethylphenyl)benzamide], above 100 µM.
For the compound `O=C(Nc1ccc(CCc2ccccc2)cc1)c1cc(Cl)ccc1O` [Compound 101], the EC50 stood at 83 µM.
The same measure, in the same setting: with `COc1ccc(Cl)cc1C(=O)Nc1ccc(OCc2ccccc2)cc1` [Compound 102, N-(4-(benzyloxy)phenyl)-5-chloro-2-methoxybenzamide] the figure was above 100 µM.
On the same count and under the same terms, with `O=C(Nc1ccc(OCc2ccccc2)cc1)c1cc(Cl)ccc1O` [Compound 103, N-(4-(benzyloxy)phenyl)-5-chloro-2-hydroxybenzamide] the figure was above 100 µM.
As for `COc1ccc(Cl)cc1C(=O)Nc1ccc(NC(C)=O)cc1` [Compound 104, N-(4-acetamidophenyl)-5-chloro-2-methoxybenzamide], the EC50 is above 100 µM.
Same read-out and setting: with `CC(=O)Nc1ccc(NC(=O)c2cc(Cl)ccc2O)cc1` [Compound 105, N-(4-acetamidophenyl)-5-chloro-2-hydroxybenzamide] the figure was above 100 µM; with `COC(=O)c1ccc(NC(=O)c2cc(Cl)ccc2OC)cc1` [Compound 106, methyl 4-(5-chloro-2-methoxybenzamido)benzoate], above 100 µM; with `COC(=O)c1ccc(NC(=O)c2cc(Cl)ccc2O)cc1` [Compound 107, methyl 4-(5-chloro-2-hydroxybenzamido)benzoate], 0.94 µM.
The same measure, in the same setting: for `COc1ccc(Cl)cc1C(=O)Nc1ccc(C(=O)O)cc1` [Compound 108, 4-(5-chloro-2-methoxybenzamido)benzoic acid] the value was above 100 µM.
In the case of `COc1ccc(Cl)cc1C(=O)Nc1ccc(CC#N)cc1` [Compound 110, 5-chloro-N-(4-(cyanomethyl)phenyl)-2-methoxybenzamide], the EC50 is above 100 µM.
Consider `N#CCc1ccc(NC(=O)c2cc(Cl)ccc2O)cc1` [Compound 111, 5-chloro-N-(4-(cyanomethyl)phenyl)-2-hydroxybenzamide], for which the EC50 was above 100 µM.
Same read-out and setting: for `COc1ccc(NC(=O)c2cc(Cl)ccc2OC)cc1` [Compound 112, 5-chloro-2-methoxy-N-(4-methoxyphenyl)benzamide] the value was above 100 µM.

The assay is the same for the next values; noted with them: Table 2; cation adjusted BHI media, OD600 at 6-8 h.
`Cc1cc(C(C#N)c2ccc(Cl)cc2)c(Cl)cc1NC(=O)c1ccccc1Br` (stereo not drawn) [Compound 73, 2-bromo-N-(5-chloro-4-((4-chlorophenyl)(cyano)methyl)-2-methylphenyl)benzamide]: the S. aureus Proliferation EC50 was above 100 µM.
The compound `Cc1cc(C(C#N)c2ccc(Cl)cc2)c(Cl)cc1NC(=O)c1cccc(Br)c1` (stereo not drawn) [Compound 74, 3-bromo-N-(5-chloro-4-((4-chlorophenyl)(cyano)methyl)-2-methylphenyl)benzamide] showed a S. aureus Proliferation EC50 above 100 µM.
Same read-out and setting: with `Cc1cc(C(C#N)c2ccc(Cl)cc2)c(Cl)cc1NC(=O)c1ccc(Br)cc1` (stereo not drawn) [Compound 75, 4-bromo-N-(5-chloro-4-((4-chlorophenyl)(cyano)methyl)-2-methylphenyl)benzamide] the figure was above 100 µM; with `Cc1cc(C(C#N)c2ccc(Cl)cc2)c(Cl)cc1NC(=O)c1ccccc1Cl` (stereo not drawn) [Compound 76, 2-chloro-N-(5-chloro-4-((4-chlorophenyl)(cyano)methyl)-2-methylphenyl)benzamide], above 100 µM.
On the same count and under the same terms, for `Cc1cc(C(C#N)c2ccc(Cl)cc2)c(Cl)cc1NC(=O)c1cccc(Cl)c1` (stereo not drawn) [Compound 77, 3-chloro-N-(5-chloro-4-((4-chlorophenyl)(cyano)methyl)-2-methylphenyl)benzamide] the value was above 100 µM; for `Cc1cc(C(C#N)c2ccc(Cl)cc2)c(Cl)cc1NC(=O)c1ccc(Cl)cc1` (stereo not drawn) [Compound 78, 4-chloro-N-(5-chloro-4-((4-chlorophenyl)(cyano)methyl)-2-methylphenyl)benzamide], above 100 µM; for `Cc1cc(C(C#N)c2ccc(Cl)cc2)c(Cl)cc1NC(=O)c1ccccc1F` (stereo not drawn) [Compound 79, N-(5-chloro-4-((4-chlorophenyl)(cyano)methyl)-2-methylphenyl)-2-fluorobenzamide], above 100 µM.
As for `Cc1cc(C(C#N)c2ccc(Cl)cc2)c(Cl)cc1NC(=O)c1cccc(F)c1` (stereo not drawn) [Compound 80, N-(5-chloro-4-((4-chlorophenyl)(cyano)methyl)-2-methylphenyl)-3-fluorobenzamide], the S. aureus Proliferation EC50 was above 100 µM.
Same read-out and setting: with `Cc1cc(C(C#N)c2ccc(Cl)cc2)c(Cl)cc1NC(=O)c1ccc(F)cc1` (stereo not drawn) [Compound 81, N-(5-chloro-4-((4-chlorophenyl)(cyano)methyl)-2-methylphenyl)-4-fluorobenzamide] the figure was above 100 µM; with `Cc1cc(C(C#N)c2ccc(Cl)cc2)c(Cl)cc1NC(=O)c1ccccc1` (stereo not drawn) [Compound 82, N-(5-chloro-4-((4-chlorophenyl)(cyano)methyl)-2-methylphenyl)benzamide], above 100 µM; with `CC(=O)Nc1cc(Cl)c(C(C#N)c2ccc(Cl)cc2)cc1C` (stereo not drawn) [Compound 83, N-(5-chloro-4-((4-chlorophenyl)(cyano)methyl)-2-methylphenyl)acetamide], above 100 µM.
